Tested on: anesthetized dogs
Assay: Hemodynamics in anesthetized dogs, iv
Type: in vivo
Description: Solvent control group, Isosorbide Dinitrate control group (0.4 mg/kg/h) and administration groups of 3,4′,5-trihydroxy-stilbene-3-[…]-D-glucoside at low (2.5 mg/kg), middle (5 mg/kg) or high (10 mg/kg) doses were set up for the test. Isosorbide Dinitrate control group were medicated by continuous intravenous infusion and other groups by intravenous injection.
After anesthetized with pentobarbital sodium, the dog was immobilized on its back. A femoral artery was separated for insertion of a catheter to record blood pressure of artery. A cardiac catheter was guided inversely from right common carotid artery into its left ventricle. Both catheters were connected to pressure transmitters. After pressure signals were amplified with carriers, they were input into an electrophysiolograph Powerlab system 8s, (ML785/8S AD Instruments, Australia). Needle electrodes were punctured into four limbs to monitor standard 2-lead ECG. A computer (chart4.12, ML785/8S, AD Instruments, Australia) were applied for real-time monitoring and storage of data. After operation, there were 30 minutes for stableness and then basic indexes were recorded before administration. Negative control group were given by […] injection of solvent at 2 ml/kg, while positive control group were intravenously infused at 0.4 mg/kg/h. […]
Indexes of observation included heart rate (HR), systolic blood pressure (BPs), diastolic blood pressure, mean blood pressure, left ventricular systolic pressure (LVSP), left ventricular diastolic pressure (LVDP), the maximum change rate of left ventricular systolic pressure rise and fall (±dp/dtmax), left ventricular end diastolic pressure and ECG.
Significance of differences was checked.

[1] = TSG 2.5 mg/kg iv, Time c1-c5: 0,10,30,60,120 min, 10 min after dosing
[2] = TSG 2.5 mg/kg iv, Time c1-c5: 0,10,30,60,120 min, 30 min after dosing
[3] = TSG 2.5 mg/kg iv, Time c1-c5: 0,10,30,60,120 min, 60 min after dosing
[4] = TSG 2.5 mg/kg iv, Time c1-c5: 0,10,30,60,120 min, 120 min after dosing
[5] = TSG 2.5 mg/kg iv, Time c1-c5: 0,10,30,60,120 min, before dosing (0 min)
[6] = TSG 5 mg/kg iv, Time c1-c5: 0,15,30,60,120 min, 0 min, before dosing
[7] = TSG 5 mg/kg iv, Time c1-c5: 0,15,30,60,120 min, 15 min after dosing
[8] = TSG 5 mg/kg iv, Time c1-c5: 0,15,30,60,120 min, 30 min after dosing
[9] = TSG 5 mg/kg iv, Time c1-c5: 0,15,30,60,120 min, 60 min after dosing
[10] = TSG 5 mg/kg iv, Time c1-c5: 0,15,30,60,120 min, 120 min after dosing
[11] = TSG 10 mg/kg iv, Time c1-c5: 0,10,30,60,120 min, 0 min
[12] = TSG 10 mg/kg iv, Time c1-c5: 0,10,30,60,120 min, 10 min after dosing
[13] = TSG 10 mg/kg iv, Time c1-c5: 0,10,30,60,120 min, 30 min after dosing
[14] = TSG 10 mg/kg iv, Time c1-c5: 0,10,30,60,120 min, 60 min after dosing
[15] = TSG 10 mg/kg iv, Time c1-c5: 0,10,30,60,120 min, 120 min after dosing

3,4′,5-trihydroxy-stilbene-3-β-D-glucoside [TSG]
+dp/dt max [1]: 829.1 ± 308.3 Kpa/s | BPd [1]: 18.3 ± 2.3 KPa | BPm [1]: 20.7 ± 2.1 KPa | BPs [1]: 24.5 ± 2.0 KPa | HR [1]: 160.4 ± 18.4 p/min | LVDP [1]: 0.45 ± 2.40 KPa | LVEDP [1]: 1.00 ± 2.33 KPa | LVSP [1]: 25.2 ± 4.2 KPa | −dp/dt max [1]: 777.3 ± 241.8 Kpa/s | +dp/dt max [2]: 869.6 ± 235.9 Kpa/s | BPd [2]: 18.5 ± 2.2 KPa | BPm [2]: 20.8 ± 1.7 KPa | BPs [2]: 24.7 ± 1.3 KPa | HR [2]: 161.7 ± 18.0 p/min | LVDP [2]: 0.28 ± 2.40 KPa | LVEDP [2]: 1.11 ± 2.50 KPa | LVSP [2]: 25.7 ± 3.8 KPa | −dp/dt max [2]: 873.9 ± 236.8 Kpa/s | +dp/dt max [3]: 993.9 ± 206.2 Kpa/s | BPd [3]: 19.1 ± 2.5 KPa | BPm [3]: 21.6 ± 2.0 KPa | BPs [3]: 25.5 ± 1.6 KPa | HR [3]: 171.1 ± 18.8 p/min | LVDP [3]: 0.26 ± 2.35 KPa | LVEDP [3]: 0.78 ± 2.37 KPa | LVSP [3]: 26.5 ± 2.5 KPa | −dp/dt max [3]: 905.9 ± 207.8 Kpa/s | +dp/dt max [4]: 957.9 ± 190.0 Kpa/s | BPd [4]: 18.1 ± 1.8 KPa | BPm [4]: 20.2 ± 2.3 KPa | BPs [4]: 23.7 ± 3.3 KPa | HR [4]: 170.5 ± 16.1 p/min | LVDP [4]: 0.50 ± 2.06 KPa | LVEDP [4]: 1.09 ± 2.16 KPa | LVSP [4]: 26.7 ± 2.3 KPa | −dp/dt max [4]: 852.5 ± 159.6 Kpa/s | +dp/dt max [5]: 853.1 ± 321.1 Kpa/s | BPd [5]: 18.5 ± 1.7 KPa | BPm [5]: 21.1 ± 2.0 KPa | BPs [5]: 25.3 ± 3.0 KPa | HR [5]: 163.7 ± 21.1 p/min | LVDP [5]: 0.39 ± 2.20 KPa | LVEDP [5]: 1.14 ± 2.18 KPa | LVSP [5]: 24.9 ± 4.0 KPa | −dp/dt max [5]: 772.0 ± 201.0 Kpa/s | +dp/dt max [6]: 822.6 ± 353.8 Kpa/s | BPd [6]: 18.9 ± 4.2 KPa | BPm [6]: 21.1 ± 4.7 KPa | BPs [6]: 25.4 ± 6.4 KPa | HR [6]: 177.2 ± 35.5 p/min | LVEDP [6]: 1.05 ± 1.34 KPa | LVSP [6]: 24.1 ± 4.4 KPa | −dp/dt max [6]: 866.2 ± 350.7 Kpa/s | +dp/dt max [7]: 793.8 ± 299.0 Kpa/s | BPd [7]: 18.7 ± 4.4 KPa | BPs [7]: 25.4 ± 5.8 KPa | HR [7]: 171.0 ± 35.6 p/min | LVEDP [7]: 1.08 ± 1.62 KPa | LVSP [7]: 24.3 ± 4.6 KPa | −dp/dt max [7]: 812.2 ± 308.9 Kpa/s | +dp/dt max [8]: 855.5 ± 296.5 Kpa/s | BPd [8]: 19.2 ± 4.0 KPa | BPm [8]: 21.7 ± 4.2 KPa | BPs [8]: 26.1 ± 5.3 KPa | HR [8]: 170.0 ± 35.5 p/min | LVEDP [8]: 1.19 ± 1.76 KPa | LVSP [8]: 24.6 ± 4.6 KPa | −dp/dt max [8]: 912.3 ± 318.8 Kpa/s | +dp/dt max [9]: 936.1 ± 199.9 Kpa/s | BPd [9]: 19.8 ± 3.3 KPa | BPm [9]: 22.1 ± 3.3 KPa | BPs [9]: 26.6 ± 4.1 KPa | HR [9]: 178.0 ± 29.5 p/min | LVEDP [9]: 0.99 ± 1.19 KPa | LVSP [9]: 25.6 ± 3.0 KPa | −dp/dt max [9]: 891.5 ± 261.8 Kpa/s | +dp/dt max [10]: 921.4 ± 327.1 Kpa/s | BPd [10]: 18.8 ± 4.4 KPa | BPm [10]: 21.0 ± 4.4 KPa | BPs [10]: 25.0 ± 5.0 KPa | HR [10]: 170.2 ± 37.1 p/min | LVEDP [10]: 0.98 ± 1.42 KPa | LVSP [10]: 25.1 ± 5.2 KPa | −dp/dt max [10]: 872.0 ± 291.7 Kpa/s | +dp/dt max [11]: 1455.5 ± 637.7 Kpa/s | BPd [11]: 19.6 ± 3.7 KPa | BPm [11]: 22.5 ± 4.8 KPa | BPs [11]: 28.5 ± 7.5 KPa | HR [11]: 212.5 ± 31.3 p/min | LVSP [11]: 30.1 ± 5.9 KPa | −dp/dt max [11]: 1164.1 ± 488.8 Kpa/s | +dp/dt max [12]: 1646.2 ± 807.8 Kpa/s | BPd [12]: 21.0 ± 5.1 KPa | BPm [12]: 24.5 ± 5.9 KPa | BPs [12]: 32.4 ± 8.2 KPa | HR [12]: 209.7 ± 33.4 p/min | LVSP [12]: 32.4 ± 6.3 KPa | −dp/dt max [12]: 1200.6 ± 447.6 Kpa/s | +dp/dt max [13]: 1623.9 ± 729.5 Kpa/s | BPd [13]: 21.4 ± 5.5 KPa | BPm [13]: 25.1 ± 5.9 KPa | BPs [13]: 33.2 ± 8.5 KPa | HR [13]: 210.2 ± 33.8 p/min | LVSP [13]: 32.4 ± 6.8 KPa | −dp/dt max [13]: 1120.4 ± 357.8 Kpa/s | +dp/dt max [14]: 1518.5 ± 708.1 Kpa/s | BPd [14]: 20.6 ± 4.8 KPa | BPm [14]: 24.4 ± 5.1 KPa | BPs [14]: 33.6 ± 5.5 KPa | HR [14]: 207.1 ± 38.1 p/min | LVSP [14]: 31.7 ± 5.5 KPa | −dp/dt max [14]: 1189.6 ± 461.6 Kpa/s | +dp/dt max [15]: 1266.6 ± 334.8 Kpa/s | BPd [15]: 20.2 ± 3.0 KPa | BPm [15]: 22.7 ± 3.0 KPa | BPs [15]: 29.0 ± 4.8 KPa | HR [15]: 205.6 ± 50.2 p/min | LVSP [15]: 29.5 ± 2.7 KPa | −dp/dt max [15]: 1068.5 ± 208.6 Kpa/s
